# Source: ChEMBL document CHEMBL3991601, “The target landscape of clinical kinase drugs” (Science, 2017)
# Activity calls are given as the source filed them.
# Tests used:
# [1] = biological target: T1, Delta(24)-sterol reductase (Homo sapiens, UniProt Q15392)
# T1 sequence (Q15392 whole entry): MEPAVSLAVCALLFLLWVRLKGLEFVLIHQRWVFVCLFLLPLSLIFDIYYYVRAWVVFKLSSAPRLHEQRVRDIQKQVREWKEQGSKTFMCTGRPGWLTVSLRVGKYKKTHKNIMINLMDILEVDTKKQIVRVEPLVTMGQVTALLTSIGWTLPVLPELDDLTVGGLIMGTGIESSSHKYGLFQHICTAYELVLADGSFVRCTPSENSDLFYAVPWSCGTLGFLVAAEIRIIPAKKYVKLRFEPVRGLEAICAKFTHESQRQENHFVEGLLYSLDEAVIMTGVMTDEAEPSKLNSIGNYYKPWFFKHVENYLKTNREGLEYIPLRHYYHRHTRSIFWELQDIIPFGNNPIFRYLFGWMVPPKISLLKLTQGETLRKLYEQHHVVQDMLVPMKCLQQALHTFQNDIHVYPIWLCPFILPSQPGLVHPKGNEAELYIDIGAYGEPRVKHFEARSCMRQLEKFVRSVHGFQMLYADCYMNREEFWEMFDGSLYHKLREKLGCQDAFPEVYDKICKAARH
# [2] = biological target: Tyrosine-protein kinase JAK1 (Homo sapiens, UniProt P23458)
# [3] = biological target: T2, DNA replication licensing factor MCM4 (Homo sapiens, UniProt P33991)
# T2 sequence (P33991 whole entry): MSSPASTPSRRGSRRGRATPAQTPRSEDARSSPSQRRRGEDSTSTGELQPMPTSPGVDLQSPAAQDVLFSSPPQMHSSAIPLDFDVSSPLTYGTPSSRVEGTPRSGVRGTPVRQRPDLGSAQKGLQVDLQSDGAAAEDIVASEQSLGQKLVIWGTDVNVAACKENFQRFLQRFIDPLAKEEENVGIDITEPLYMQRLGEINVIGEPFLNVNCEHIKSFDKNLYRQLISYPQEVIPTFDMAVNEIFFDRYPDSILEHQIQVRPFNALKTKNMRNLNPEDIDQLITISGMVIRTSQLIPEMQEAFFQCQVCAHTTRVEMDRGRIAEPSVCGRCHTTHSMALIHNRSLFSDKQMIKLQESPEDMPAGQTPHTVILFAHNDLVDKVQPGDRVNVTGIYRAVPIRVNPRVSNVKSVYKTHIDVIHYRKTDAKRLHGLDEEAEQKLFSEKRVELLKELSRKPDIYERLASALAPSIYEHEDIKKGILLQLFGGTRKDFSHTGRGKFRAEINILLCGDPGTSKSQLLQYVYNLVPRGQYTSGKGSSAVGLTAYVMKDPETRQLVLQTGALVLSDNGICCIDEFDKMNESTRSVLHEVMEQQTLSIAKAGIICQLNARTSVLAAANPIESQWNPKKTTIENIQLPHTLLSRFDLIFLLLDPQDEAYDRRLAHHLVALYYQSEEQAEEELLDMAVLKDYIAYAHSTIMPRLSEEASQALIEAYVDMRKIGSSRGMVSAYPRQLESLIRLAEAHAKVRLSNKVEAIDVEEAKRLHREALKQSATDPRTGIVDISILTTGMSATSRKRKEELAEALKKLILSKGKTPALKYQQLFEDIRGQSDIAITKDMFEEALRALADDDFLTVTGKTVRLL
# TGF-beta receptor type-1 = biological target: T3, TGF-beta receptor type-1 (Homo sapiens, UniProt P36897)
# T3 sequence (P36897 whole entry): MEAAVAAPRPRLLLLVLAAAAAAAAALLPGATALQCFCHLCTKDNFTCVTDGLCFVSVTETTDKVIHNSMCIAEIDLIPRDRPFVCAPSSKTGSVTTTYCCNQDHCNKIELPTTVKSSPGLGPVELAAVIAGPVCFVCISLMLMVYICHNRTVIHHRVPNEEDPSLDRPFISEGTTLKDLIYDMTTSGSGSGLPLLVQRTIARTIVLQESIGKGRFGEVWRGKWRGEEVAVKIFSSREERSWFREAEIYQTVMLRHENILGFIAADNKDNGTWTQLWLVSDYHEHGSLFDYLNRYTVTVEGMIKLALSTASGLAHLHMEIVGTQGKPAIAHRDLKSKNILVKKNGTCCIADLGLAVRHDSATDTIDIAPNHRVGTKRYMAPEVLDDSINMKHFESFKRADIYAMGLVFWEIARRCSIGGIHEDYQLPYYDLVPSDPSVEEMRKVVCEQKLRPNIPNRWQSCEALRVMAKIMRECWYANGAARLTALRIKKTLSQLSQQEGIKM
# [4] = biological target: T4, Probable ATP-dependent RNA helicase DDX6 (Homo sapiens, UniProt P26196)
# T4 sequence (P26196 whole entry): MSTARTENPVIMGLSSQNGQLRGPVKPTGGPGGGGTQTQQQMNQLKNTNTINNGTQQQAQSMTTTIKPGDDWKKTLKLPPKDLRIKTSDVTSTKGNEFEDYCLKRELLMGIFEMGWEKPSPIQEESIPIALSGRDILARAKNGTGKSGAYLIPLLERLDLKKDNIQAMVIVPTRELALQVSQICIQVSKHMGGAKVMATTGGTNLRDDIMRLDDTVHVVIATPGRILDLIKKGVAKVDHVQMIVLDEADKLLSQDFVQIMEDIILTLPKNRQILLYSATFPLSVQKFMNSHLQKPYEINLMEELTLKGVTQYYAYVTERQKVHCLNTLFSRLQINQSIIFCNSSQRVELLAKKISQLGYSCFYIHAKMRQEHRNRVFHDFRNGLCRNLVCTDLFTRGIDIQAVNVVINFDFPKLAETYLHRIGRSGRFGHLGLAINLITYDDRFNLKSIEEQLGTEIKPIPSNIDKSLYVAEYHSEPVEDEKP
# [5] = biological target: Bone morphogenetic protein receptor type-1A (Homo sapiens, UniProt P36894)
# Wee1-like protein kinase = Wee1-like protein kinase (Homo sapiens, UniProt P30291)
# [6] = biological target: T5, Uncharacterized protein FLJ45252 (Homo sapiens, UniProt Q6ZSR9); conditions: read-out: Kd apparent; k-562, colo 205, sk-n-be(2) and mv-4-11
# T5 sequence (Q6ZSR9 whole entry): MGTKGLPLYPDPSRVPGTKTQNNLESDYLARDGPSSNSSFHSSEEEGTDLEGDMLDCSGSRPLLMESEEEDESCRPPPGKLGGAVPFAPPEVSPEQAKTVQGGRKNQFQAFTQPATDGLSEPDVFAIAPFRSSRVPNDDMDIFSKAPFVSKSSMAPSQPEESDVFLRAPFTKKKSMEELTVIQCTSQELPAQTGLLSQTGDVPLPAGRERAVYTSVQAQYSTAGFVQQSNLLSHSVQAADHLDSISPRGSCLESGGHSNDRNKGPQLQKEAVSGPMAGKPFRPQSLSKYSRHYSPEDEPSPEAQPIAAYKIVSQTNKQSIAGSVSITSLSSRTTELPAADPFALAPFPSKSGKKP
# Also: in the data inactive means no Kd found up to 30 µM.
# Sequence of Wee1-like protein kinase (P30291 whole entry): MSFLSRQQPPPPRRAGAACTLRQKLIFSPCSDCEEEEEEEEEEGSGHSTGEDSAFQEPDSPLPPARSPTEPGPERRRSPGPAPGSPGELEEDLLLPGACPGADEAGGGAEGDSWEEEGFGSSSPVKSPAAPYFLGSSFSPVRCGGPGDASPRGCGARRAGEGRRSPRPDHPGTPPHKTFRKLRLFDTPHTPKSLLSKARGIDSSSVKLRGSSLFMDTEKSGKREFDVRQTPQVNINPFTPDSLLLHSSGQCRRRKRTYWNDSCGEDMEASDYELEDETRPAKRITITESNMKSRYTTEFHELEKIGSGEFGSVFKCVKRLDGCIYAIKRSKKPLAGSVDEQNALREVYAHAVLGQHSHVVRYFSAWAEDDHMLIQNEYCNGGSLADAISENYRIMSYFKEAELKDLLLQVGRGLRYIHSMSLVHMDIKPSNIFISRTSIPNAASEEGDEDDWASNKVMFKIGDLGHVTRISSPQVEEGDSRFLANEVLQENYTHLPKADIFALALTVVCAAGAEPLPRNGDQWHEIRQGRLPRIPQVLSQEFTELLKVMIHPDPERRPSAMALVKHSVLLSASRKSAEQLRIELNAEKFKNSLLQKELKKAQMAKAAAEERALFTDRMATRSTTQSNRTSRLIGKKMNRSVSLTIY
# Sequence of Bone morphogenetic protein receptor type-1A (P36894 whole entry): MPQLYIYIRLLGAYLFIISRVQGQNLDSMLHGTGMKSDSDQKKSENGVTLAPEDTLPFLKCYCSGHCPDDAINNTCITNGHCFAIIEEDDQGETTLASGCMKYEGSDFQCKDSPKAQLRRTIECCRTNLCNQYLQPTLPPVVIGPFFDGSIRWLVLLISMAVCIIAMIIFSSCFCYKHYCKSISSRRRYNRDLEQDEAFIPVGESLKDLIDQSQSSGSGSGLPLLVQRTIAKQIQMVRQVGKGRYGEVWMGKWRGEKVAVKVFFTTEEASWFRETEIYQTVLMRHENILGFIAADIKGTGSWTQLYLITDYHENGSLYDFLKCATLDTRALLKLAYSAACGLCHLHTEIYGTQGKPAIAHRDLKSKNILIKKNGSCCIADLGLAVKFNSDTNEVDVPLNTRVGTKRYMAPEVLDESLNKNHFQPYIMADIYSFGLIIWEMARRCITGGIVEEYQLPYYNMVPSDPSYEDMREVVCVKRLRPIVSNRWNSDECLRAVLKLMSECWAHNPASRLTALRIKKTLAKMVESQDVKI
# Sequence of Tyrosine-protein kinase JAK1 (P23458 whole entry): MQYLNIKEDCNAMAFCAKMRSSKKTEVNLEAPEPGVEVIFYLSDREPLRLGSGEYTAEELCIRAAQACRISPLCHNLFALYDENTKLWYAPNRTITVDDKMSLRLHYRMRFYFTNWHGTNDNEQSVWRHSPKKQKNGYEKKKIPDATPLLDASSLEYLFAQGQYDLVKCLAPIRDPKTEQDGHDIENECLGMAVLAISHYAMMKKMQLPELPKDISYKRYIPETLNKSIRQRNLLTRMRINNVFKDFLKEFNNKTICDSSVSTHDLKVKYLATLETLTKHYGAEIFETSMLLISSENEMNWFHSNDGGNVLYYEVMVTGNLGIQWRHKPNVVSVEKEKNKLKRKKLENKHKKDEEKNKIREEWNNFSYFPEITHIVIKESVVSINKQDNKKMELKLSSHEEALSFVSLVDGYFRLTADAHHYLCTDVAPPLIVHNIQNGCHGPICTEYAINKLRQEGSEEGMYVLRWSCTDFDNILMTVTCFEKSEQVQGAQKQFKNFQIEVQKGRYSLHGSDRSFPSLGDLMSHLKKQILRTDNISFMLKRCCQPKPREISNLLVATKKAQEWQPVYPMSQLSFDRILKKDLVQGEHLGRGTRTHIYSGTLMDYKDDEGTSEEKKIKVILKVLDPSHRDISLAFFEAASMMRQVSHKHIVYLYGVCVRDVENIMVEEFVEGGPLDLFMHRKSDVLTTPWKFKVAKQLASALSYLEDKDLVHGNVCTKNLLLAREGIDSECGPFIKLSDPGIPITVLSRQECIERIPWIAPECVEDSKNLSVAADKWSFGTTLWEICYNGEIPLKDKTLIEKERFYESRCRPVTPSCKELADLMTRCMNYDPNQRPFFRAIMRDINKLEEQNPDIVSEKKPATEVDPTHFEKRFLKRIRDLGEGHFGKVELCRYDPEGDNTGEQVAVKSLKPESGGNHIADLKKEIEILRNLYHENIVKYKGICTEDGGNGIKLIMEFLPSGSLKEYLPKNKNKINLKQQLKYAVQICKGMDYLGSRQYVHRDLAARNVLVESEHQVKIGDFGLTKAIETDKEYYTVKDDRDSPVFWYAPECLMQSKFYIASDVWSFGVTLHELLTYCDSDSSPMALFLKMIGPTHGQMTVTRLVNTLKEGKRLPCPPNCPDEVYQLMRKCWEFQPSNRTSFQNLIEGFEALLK
Kd [1],Kd [2],Kd [3],Kd (TGF-beta receptor type-1),Kd [4],Kd [5],Kd (Wee1-like protein kinase),Kd [6],SMILES
> 30 µM (inactive),–,> 30 µM (inactive),–,> 30 µM (inactive),–,–,2.3 µM (active),CNC(=O)c1ccccc1Sc1ccc2c(/C=C/c3ccccn3)n[nH]c2c1 [AXITINIB]
> 30 µM (inactive),> 30 µM (inactive),> 30 µM (inactive),> 30 µM (inactive),> 30 µM (inactive),> 30 µM (inactive),> 30 µM (inactive),–,COc1c(OCCCN2CCOCC2)ccc2c1N=C(NC(=O)c1cnc(N)nc1)N1CCN=C21 [COPANLISIB]
> 30 µM (inactive),> 30 µM (inactive),> 30 µM (inactive),–,> 30 µM (inactive),> 30 µM (inactive),> 30 µM (inactive),> 30 µM (inactive),Cc1cccc(-c2nn3c(c2-c2ccnc4ccc(C(N)=O)cc24)CCC3)n1 [GALUNISERTIB]
> 30 µM (inactive),–,> 30 µM (inactive),–,> 30 µM (inactive),–,–,> 30 µM (inactive),C[C@@H](Oc1cc(-n2cnc3ccc(CN4CCN(C)CC4)cc32)sc1C(N)=O)c1ccccc1C(F)(F)F [GSK-461364]
> 30 µM (inactive),> 30 µM (inactive),> 30 µM (inactive),1.94 µM (active),> 30 µM (inactive),> 30 µM (inactive),> 30 µM (inactive),–,CCn1cc(-c2ccnc3[nH]c(-c4cccc(CN(C)C)c4)cc23)c(-c2ccc(NC(=O)N(C)C)cc2)n1 [GSK-1070916]
> 30 µM (inactive),> 30 µM (inactive),–,> 30 µM (inactive),> 30 µM (inactive),> 30 µM (inactive),> 30 µM (inactive),> 30 µM (inactive),COc1ccc(S(=O)(=O)N(C(C)=O)c2ccccc2/C=C/c2cc[n+]([O-])cc2)cc1 [HMN-214]
> 30 µM (inactive),> 30 µM (inactive),> 30 µM (inactive),> 30 µM (inactive),> 30 µM (inactive),> 30 µM (inactive),0.013 µM (active),–,CNC(=O)c1nn(C)c2c1C(C)(C)Cc1cnc(Nc3ccc(N4CCN(C)CC4)cc3)nc1-2 [MILCICLIB]
> 30 µM (inactive),> 30 µM (inactive),> 30 µM (inactive),0.005 µM (active),> 30 µM (inactive),–,> 30 µM (inactive),> 30 µM (inactive),NC(=O)c1c(OCc2c(F)cc(Br)cc2F)nsc1NC(=O)NCCCCN1CCCC1 [OSI-632]
> 30 µM (inactive),–,> 30 µM (inactive),> 30 µM (inactive),> 30 µM (inactive),> 30 µM (inactive),1.59 µM (active),0.01 µM (active),CC(=O)NCC(=O)N1[C@@H]2CC[C@H]1c1ccc(Nc3ncc(C(F)(F)F)c(NC4CCC4)n3)cc12 [PF-03814735]
> 30 µM (inactive),–,> 30 µM (inactive),–,> 30 µM (inactive),–,–,> 30 µM (inactive),O=C(NOCCO)c1cc(CN2OCCCC2=O)c(F)c(F)c1Nc1ccc(I)cc1F [RO-4987655]
> 30 µM (inactive),–,> 30 µM (inactive),–,> 30 µM (inactive),–,–,0.196 µM (active),N#CC[C@H](C1CCCC1)n1cc(-c2ncnc3[nH]ccc23)cn1 [RUXOLITINIB]
> 30 µM (inactive),> 30 µM (inactive),> 30 µM (inactive),0.197 µM (active),> 30 µM (inactive),> 30 µM (inactive),> 30 µM (inactive),–,CCS(=O)(=O)c1cccc(-c2cc(C(=O)NC3CCN(C)CC3)c(C)c3[nH]c4ncc(C)cc4c23)c1 [TAK-901]
> 30 µM (inactive),> 30 µM (inactive),–,> 30 µM (inactive),> 30 µM (inactive),> 30 µM (inactive),> 30 µM (inactive),> 30 µM (inactive),Cn1ncc(Cl)c1-c1cc(C(=O)N[C@H](CN)Cc2ccc(F)c(F)c2)oc1Cl [UPROSERTIB]
> 30 µM (inactive),> 30 µM (inactive),> 30 µM (inactive),–,> 30 µM (inactive),–,> 30 µM (inactive),–,CC(C)c1cc(CNc2nc(Nc3cc(C4CC4)[nH]n3)cc(N3CCN(C)CC3)n2)on1 [XL-228]

SMILES,Kd [1],Kd [2],Kd [3],Kd (TGF-beta receptor type-1),Kd [4],Kd [5],Kd (Wee1-like protein kinase),Kd [6]
CC(=O)c1cnc2ccc(-c3cc(Cl)c(O)c(Cl)c3)nc2c1N[C@H]1CC[C@H](CN(C)C)CC1,> 30 µM (inactive),> 30 µM (inactive),> 30 µM (inactive),0.149 µM (active),> 30 µM (inactive),> 30 µM (inactive),> 30 µM (inactive),–
Cn1cc(C2=C(c3cn(C4CCN(Cc5ccccn5)CC4)c4ccccc34)C(=O)NC2=O)c2ccccc21 [ENZASTAURIN],> 30 µM (inactive),–,> 30 µM (inactive),–,> 30 µM (inactive),–,–,> 30 µM (inactive)
O=C(Nc1nc2cccc(-c3ccc(CN4CCS(=O)(=O)CC4)cc3)n2n1)C1CC1 [FILGOTINIB],> 30 µM (inactive),–,> 30 µM (inactive),> 30 µM (inactive),> 30 µM (inactive),> 30 µM (inactive),> 30 µM (inactive),–
CCOc1cc2ncc(C#N)c(Nc3ccc(F)c(Cl)c3)c2cc1NC(=O)/C=C/CN(C)C [PELITINIB],> 30 µM (inactive),> 30 µM (inactive),> 30 µM (inactive),> 30 µM (inactive),> 30 µM (inactive),> 30 µM (inactive),–,> 30 µM (inactive)
CNC(=O)c1cc(Oc2ccc(NC(=O)Nc3cc(C(C)(C)C)nn3-c3ccc4ncccc4c3)c(F)c2)ccn1 [REBASTINIB],> 30 µM (inactive),> 30 µM (inactive),–,> 30 µM (inactive),> 30 µM (inactive),> 30 µM (inactive),> 30 µM (inactive),> 30 µM (inactive)
